These results are taken from patent US5840918A, “Isoprenyl transferase inhibitors” (Eisai Co., Ltd., priority 1997, dated 1998).

The target of one assay is T1, FTase (Bos taurus, UniProt P29702+P49355).
T1 construct: bovine brain by inference from the cited Moores et al. 1991
The assay is described as follows: Inhibition of FTase-mediated prenylation (in vitro prenylation assay). The note with it: Table 1; partially purified FTase, 3 μM recombinant H-ras, 440 nM [3H]FPP, 15 min 37° C. The assay is classed as biochemical. The text has this: (§1) Nanomolar concentrations of the indicated compounds were sufficient to inhibit farnesylation of ras proteins in vitro. For screening candidate compounds useful for the treatment of ras-associated tumors, the FTase assay is preferred. […] Substitutions which confer GGTase specificity as taught herein also produced potent inhibitors of GGTase.

Another assay has as its target GGTase. Description: Inhibition of GGTase-mediated prenylation (in vitro prenylation assay). The assay is classed as biochemical. The note with it: Table 1; partially purified GGTase, 5 μM recombinant H-ras (61L, CAIL), 1 μM [3H] geranylgeranyl diphosphate.
Source text: as §1

Assay [1] deals with H-ras farnesylation in H-ras (61L) transformed NIH3T3 fibroblasts. Description: Inhibition of H-ras farnesylation in whole cells (Western blot). The class given is cell-based, mouse. The note with it: Mus musculus, NIH3T3, 24 h, Table 2. On the procedure: The ability of compounds of the invention to inhibit H-ras farnesylation and rap1 geranylgeranylation in whole cells was determined. H-ras (61L) transformed NIH3T3 fibroblasts were generously provided by C. Der, Univ. N. Carolina. These fibroblasts were treated for 24 h with 50 μM lovastatin (control) or the indicated concentrations of inhibitor. The cells were lysed in 1% NP-40, 5 mM Tris-HCl (pH 8.0), 5 mM EDTA, 0.1 mM N-tosyl-L-phenylalanine chloromethyl ketone, 0.1 mM N-tosyl-L-lysine chloromethyl ketone, and 1 mM phenylmethylsulfonyl fluoride. The lysate was centrifuged (15000×g, 5 min.) and the supernatant was used as a cell extract. […] After transfer to IMMOBILON P™ membrane (Millipore), the blots were probed with LA069 mouse monoclonal antibody to H-ras (Quality Biotech), or rabbit polyclonal antibody to rap1/Krev (Santa Cruz Biotechnology). All Western blots were developed using ECL chemiluminescent reagents (Amersham).

`CC(C)[C@@H](/C=C\C(Cc1ccccc1)C(=O)NC(CCC(N)=O)C(=O)O)/C=C/C(N)CS` (stereo partly drawn) [PD301]: the IC50 at FTase is 2 nM; on GGTase, 3.7 nM; in assay [1], 4500 nM.

Regarding `CSCCC(NC(=O)C(/C=C\C(/C=C/C(N)CS)C(C)C)Cc1ccccc1)C(=O)O` (stereo not drawn) [PD311], the figures for the IC50 (at FTase; on GGTase; in assay [1]) were 69 nM, 570 nM and 100 to 1000 nM, respectively.

Take `CSCCC(NC(=O)C(/C=C\[C@@H](/C=C/C1CSC(C)(C)N1)C(C)C)Cc1ccccc1)C(=O)O` (stereo partly drawn) [PD321]: the IC50 was 25 nM at FTase, 14 nM on GGTase and 100 to 1000 nM in assay [1].

Consider `CCOC(=O)[C@H](CCSC)NC(=O)C(/C=C/[C@@H](/C=C/C(N)CS)Cc1ccccc1)C(C)C` (stereo partly drawn) [PD351], for which the IC50 at FTase was 320 nM; on GGTase, 2490 nM; in assay [1], 3300 nM.

On to `CSCC[C@H](NC(=O)C(/C=C\[C@@H](/C=C/C(N)CS)C(C)C)Cc1ccccc1)C(=O)O` (stereo partly drawn) [PD401], for which the IC50 at FTase is 28 nM; on GGTase, 1400 nM; in assay [1], 100 to 1000 nM.

For `COC(=O)[C@H](CCSC)NC(=O)C(/C=C/[C@@H](/C=C/C(N)CS)C(C)C)C(C)C` (stereo partly drawn) [PD411], the values for the IC50 (at FTase; at GGTase; in assay [1]) were 560 nM, 8400 nM and 220 nM, respectively.

Consider `CCOC(=O)C(CCSC)NC(=O)C(C=CC(C=CC(N)CS)Cc1ccccc1)C(C)C` (stereo not drawn) [PD421], for which the IC50 at FTase turned out to be 570 nM; on GGTase, 3400 nM; in assay [1], 1900 nM.

As for `CSCC[C@H](NC(=O)C(/C=C/[C@H](C)/C=C/C(N)CS)Cc1ccccc1)C(=O)O` (stereo partly drawn) [PD441], the IC50 at FTase is 26 nM; on GGTase, 170 nM; in assay [1], 4200 nM.

As to `COC(=O)[C@H](CCSC)N(C)C(=O)C(/C=C\[C@@H](/C=C/C(N)CS)C(C)C)Cc1ccccc1` (stereo partly drawn) [PD451], the IC50 on FTase was determined as 146 nM; at GGTase, 1110 nM; in assay [1] it was 400 nM.

On to `COC(=O)[C@H](CCSC)NC(=O)C(Cc1ccccc1)OC[C@@H](/C=C/C(N)CS)C(C)C` (stereo partly drawn) [PE011], for which the IC50 on FTase amounted to 43 nM; at GGTase, 1030 nM; in assay [1], 10 nM.

On to `CSCC[C@H](NC(=O)C(Cc1ccccc1)OC[C@@H](/C=C/C(N)CS)C(C)C)C(=O)O` (stereo partly drawn) [PE021], for which the IC50 at FTase was found to be 9 nM; on GGTase, 92 nM; in assay [1], 280 nM.

On to `CC(C)[C@H](/C=C/C(N)CS)COC(Cc1ccccc1)C(=O)N[C@@H](CCS(C)(=O)=O)C(=O)O` (stereo partly drawn) [PE031], for which the IC50 was determined as 20 nM at FTase, 140 nM at GGTase and 330 nM in assay [1].

For the compound `CSCCC(NC(=O)C(Cc1ccccc1)OCC(C=CC(N)CSSCC(N)C=CC(COC(Cc1ccccc1)C(=O)NC(CCSC)C(=O)O)C(C)C)C(C)C)C(=O)O` (stereo not drawn) [PE041], the IC50 is 27 nM at FTase, 160 nM on GGTase and 190 nM in assay [1].

For `COC(=O)C(CCSC)NC(=O)C(Cc1ccccc1)OCC(C=CC(N)CSSCC(N)C=CC(COC(Cc1ccccc1)C(=O)NC(CCSC)C(=O)OC)C(C)C)C(C)C` (stereo not drawn) [PE051], the IC50 turned out to be 290 nM at FTase, 2300 nM on GGTase and 110 nM in assay [1].

As to `COC(=O)[C@H](CCS(C)(=O)=O)NC(=O)C(Cc1ccccc1)OC[C@@H](/C=C/C(N)CS)C(C)C` (stereo partly drawn) [PE061], the IC50 came out at 60 nM on FTase, 6300 nM on GGTase and 1100 nM in assay [1].

`COc1ccc(-c2ccc(C/C=C/[C@@H](N)CS)cc2C(=O)N[C@@H](CCSC)C(=O)O)cc1` [PM011]: the figures for the IC50 (at FTase; on GGTase; in assay [1]) were 1130 nM, 1600 nM and more than 100000 nM, respectively.

With `C=Cc1ccc(C/C=C/C(N)CS)cc1C(=O)N[C@@H](CCSC)C(=O)O` (stereo partly drawn) [PM012], the figures for the IC50 (at FTase; on GGTase; in assay [1]) were 2 nM, 520 nM and 2700 nM, respectively.

Turning to `CSCC[C@H](NC(=O)c1cc(C/C=C/C(N)CS)ccc1-c1ccsc1)C(=O)O` (stereo partly drawn) [PM021], the IC50 on FTase was 17 nM; on GGTase, 75 nM; in assay [1], 2100 nM.

Regarding `NC(C=CCc1ccc(-c2ccsc2)c(C(=O)NC(Cc2cccs2)C(=O)O)c1)CSSCC(N)C=CCc1ccc(-c2ccsc2)c(C(=O)NC(Cc2cccs2)C(=O)O)c1` (stereo not drawn) [PM022], the IC50 on FTase is 18 nM; at GGTase, 130 nM; in assay [1], 13100 nM.

As for `COC(=O)[C@H](CCSC)NCc1cc(C/C=C/[C@@H](N)CS)ccc1-c1ccccc1` [PM031], the IC50 worked out at 115 nM at FTase, 1400 nM on GGTase and 25000 nM in assay [1].

`COC(=O)[C@H](CCS(C)(=O)=O)NC(=O)c1cc(CCC[C@@H](N)CS)ccc1-c1ccsc1` [PM032]: the IC50 turned out to be 93 nM at FTase, 6590 nM at GGTase and 19500 nM in assay [1].

With `COC(=O)[C@H](CCSC)NC(=O)c1cc(C/C=C/[C@@H](N)CS)ccc1-c1ccccc1` [PM041], the results for the IC50 (on FTase; on GGTase; in assay [1]) were 180 nM, 1400 nM and 2300 nM, respectively.

Take `CSCC[C@H](NC(=O)c1cc(C/C=C/[C@@H](N)CS)ccc1-c1cc(C(F)(F)F)cc(C(F)(F)F)c1)C(=O)O` [PM042]: the IC50 at FTase is 3100 nM; at GGTase it was 320 nM; in assay [1], more than 500000 nM.

`NC(=O)CC[C@H](NC(=O)c1cc(C/C=C/C(N)CS)ccc1-c1ccccc1)C(=O)O` (stereo partly drawn) [PM051]: the results for the IC50 (at FTase; at GGTase; in assay [1]) were 0.85 nM, 1550 nM and 23500 nM, respectively.

Turning to `CSCC[C@H](NC(=O)c1cc(C/C=C/C(N)CS)ccc1-c1ccco1)C(=O)O` (stereo partly drawn) [PM052], the figures for the IC50 (at FTase; at GGTase; in assay [1]) were 0.3 nM, 190 nM and 2600 nM, respectively.

On to `CCc1ccc(C/C=C/C(N)CS)cc1C(=O)N[C@@H](CCSC)C(=O)O` (stereo partly drawn) [PM062], for which the IC50 on FTase is 9 nM; at GGTase, 420 nM; in assay [1], 360 nM.

As to `CSCC[C@H](NC(=O)c1cc(C/C=C/C(N)CS)ccc1-c1ccc(C(F)(F)F)cc1)C(=O)O` (stereo partly drawn) [PM071], the IC50 is 710 nM at FTase, 950 nM on GGTase and more than 100000 nM in assay [1].

`CC(C)COC(=O)[C@H](CCS(C)(=O)=O)NC(=O)c1cc(C/C=C/[C@@H](N)CS)ccc1-c1ccsc1` [PM072]: the IC50 on FTase was determined as 160 nM; at GGTase, 3960 nM; in assay [1], 2400 nM.

Consider `CSCC[C@H](NC(=O)c1cc(C/C=C/C(N)CS)ccc1-c1ccccc1)C(N)=O` (stereo partly drawn) [PM081], for which the results for the IC50 (on FTase; at GGTase; in assay [1]) were 170 nM, 1680 nM and 23400 nM, respectively.

With `CSCC[C@H](NC(=O)c1cc(C/C=C/C(N)CS)ccc1-c1cccc2ccccc12)C(=O)O` (stereo partly drawn) [PM082], the results for the IC50 (on FTase; at GGTase; in assay [1]) were 30 nM, 148 nM and 21000 nM, respectively.

For `NC(/C=C/Cc1ccc(-c2ccccc2)c(C(=O)N[C@@H](CO)C(=O)O)c1)CS` (stereo partly drawn) [PM091], the values for the IC50 (at FTase; on GGTase; in assay [1]) were 2 nM, more than 1000 nM and 474000 nM, respectively.

For the compound `COC(=O)[C@H](Cc1cccs1)NC(=O)c1cc(C/C=C/C(N)CS)ccc1-c1ccsc1` (stereo partly drawn) [PM092], the IC50 on FTase came to 215 nM; on GGTase, 3500 nM; in assay [1], 2700 nM.

As for `CSCC[C@H](NC(=O)c1cc(C/C=C\C(N)CS)ccc1-c1ccccc1)C(=O)O` (stereo partly drawn) [PM101], the IC50 was determined as 24 nM at FTase, 793 nM at GGTase and 14600 nM in assay [1].

For the compound `CSCC[C@H](NC(=O)c1cccc(C/C=C/C(N)CS)c1)C(=O)O` (stereo partly drawn) [PM102], the IC50 on FTase came to 290 nM; at GGTase, 4850 nM; in assay [1], 26000 nM.

For the compound `CSCC[C@H](NC(=O)c1cc(C/C=C/C(N)CS)ccc1-c1cccc(C(F)(F)F)c1)C(=O)O` (stereo partly drawn) [PM111], the IC50 on FTase is 24 nM; at GGTase it was 246 nM; in assay [1] it was more than 100000 nM.

In the case of `CSCC[C@H](NC(=O)c1cc(C/C=C/C(N)CS)ccc1C)C(=O)O` (stereo partly drawn) [PM112], the figures for the IC50 (on FTase; on GGTase; in assay [1]) were 1.2 nM, 1660 nM and 4000 nM, respectively.

Take `CSCC[C@H](NCc1cc(C/C=C/C(N)CS)ccc1-c1ccccc1)C(=O)O` (stereo partly drawn) [PM121]: the IC50 turned out to be 22 nM on FTase, 1720 nM on GGTase and 23400 nM in assay [1].

On to `COc1ccc(C/C=C/C(N)CS)cc1C(=O)N[C@@H](CCSC)C(=O)O` (stereo partly drawn) [PM122], for which the values for the IC50 (on FTase; on GGTase; in assay [1]) were 3 nM, 2200 nM and 23400 nM, respectively.

As to `CC(C)C[C@H](NC(=O)c1cc(C/C=C/C(N)CS)ccc1-c1ccccc1)C(=O)O` (stereo partly drawn) [PM131], the IC50 on FTase is 605 nM; on GGTase, 2.4 nM; in assay [1] it was more than 250000 nM.

As to `COC(=O)[C@H](CCSC)NC(=O)c1cc(CCCC(N)CS)ccc1-c1ccsc1` (stereo partly drawn) [PM132], the results for the IC50 (at FTase; at GGTase; in assay [1]) were 119 nM, 1630 nM and 1600 nM, respectively.

Consider `CSCCC(NC(=O)c1cc(CC=CC(N)CSSCC(N)C=CCc2ccc(-c3ccccc3)c(C(=O)NC(CCSC)C(=O)O)c2)ccc1-c1ccccc1)C(=O)O` (stereo not drawn) [PM141], for which the values for the IC50 (at FTase; on GGTase; in assay [1]) were 0.1 nM, 16 nM and 9700 nM, respectively.

The term IC50 denotes the midpoint of a concentration-inhibition curve.
